# According to the NIST ThermoML archive (doi:10.1021/je0497496):
# “And” between values parts separate entries of the source, which are not always exact repeats. Equal entries are not always repeated. ± gives the expanded uncertainty stated by the source.
# Settings: for vapor or sublimation pressure: Closed cell (Static) method; for mass density: buoyancy
smiles,measurement,setting,value
"FCC(F)(F)F [1,1,1,2-tetrafluoroethane]",vapor or sublimation pressure,"253.13 K, Liquid",133.58 ± 1.1 kPa and 133.6 ± 1.1 kPa
same,mass density,"253.13 K, Liquid",1358.69 ± 0.4 kg/m3 and 1358.7 ± 0.4 kg/m3
same,mass density,"262.98 K, 30.04 kPa, Fluid (supercritical or subcritical phases)",1.41703 ± 0.052 kg/m3
same,mass density,"262.99 K, 30.02 kPa, Fluid (supercritical or subcritical phases)",1.41553 ± 0.052 kg/m3 and 1.41816 ± 0.052 kg/m3
same,mass density,"262.99 K, 50.03 kPa, Fluid (supercritical or subcritical phases)",2.37378 ± 0.052 kg/m3
same,mass density,"262.99 K, 80.08 kPa, Fluid (supercritical or subcritical phases)",3.83561 ± 0.053 kg/m3
same,mass density,"262.99 K, 100.09 kPa, Fluid (supercritical or subcritical phases)",4.82696 ± 0.055 kg/m3
same,mass density,"262.99 K, 150.06 kPa, Fluid (supercritical or subcritical phases)",7.37304 ± 0.055 kg/m3
same,vapor or sublimation pressure,"262.99 K, Liquid",200.47 ± 1.1 kPa
same,mass density,"262.99 K, Liquid",1327.33 ± 0.4 kg/m3
same,vapor or sublimation pressure,"263 K, Liquid",200.48 ± 1.1 kPa
same,mass density,"263 K, Liquid",1327.31 ± 0.4 kg/m3
same,mass density,"273.31 K, 50 kPa, Fluid (supercritical or subcritical phases)",2.27757 ± 0.051 kg/m3 and 2.2813 ± 0.051 kg/m3
same,mass density,"273.31 K, 100.01 kPa, Fluid (supercritical or subcritical phases)",4.6218 ± 0.052 kg/m3
same,mass density,"273.31 K, 150.01 kPa, Fluid (supercritical or subcritical phases)",7.03559 ± 0.053 kg/m3
same,mass density,"273.31 K, 200 kPa, Fluid (supercritical or subcritical phases)",9.53172 ± 0.055 kg/m3
same,vapor or sublimation pressure,"273.31 K, Liquid",295.5 ± 1.2 kPa
same,mass density,"273.31 K, Liquid",1293.96 ± 0.39 kg/m3
same,mass density,"273.32 K, 250 kPa, Fluid (supercritical or subcritical phases)",12.1179 ± 0.056 kg/m3
same,mass density,"283.16 K, 100.09 kPa, Fluid (supercritical or subcritical phases)",4.4428 ± 0.051 kg/m3
same,mass density,"283.16 K, 200.02 kPa, Fluid (supercritical or subcritical phases)",9.12611 ± 0.052 kg/m3
same,mass density,"283.16 K, 300.08 kPa, Fluid (supercritical or subcritical phases)",14.1052 ± 0.054 kg/m3
same,vapor or sublimation pressure,"283.16 K, Liquid",415.71 ± 1.3 kPa
same,mass density,"283.16 K, Liquid",1260.66 ± 0.38 kg/m3
same,mass density,"283.17 K, 100.1 kPa, Fluid (supercritical or subcritical phases)",4.44579 ± 0.051 kg/m3
same,mass density,"283.17 K, 350.92 kPa, Fluid (supercritical or subcritical phases)",16.7525 ± 0.056 kg/m3
same,vapor or sublimation pressure,"283.17 K, Liquid",415.71 ± 1.3 kPa
same,mass density,"283.17 K, Liquid",1260.67 ± 0.38 kg/m3
same,mass density,"293.21 K, 399.98 kPa, Fluid (supercritical or subcritical phases)",18.4354 ± 0.056 kg/m3
same,mass density,"293.21 K, 500.02 kPa, Fluid (supercritical or subcritical phases)",23.7422 ± 0.057 kg/m3
same,mass density,"293.22 K, 100.05 kPa, Fluid (supercritical or subcritical phases)",4.27783 ± 0.049 kg/m3 and 4.27519 ± 0.049 kg/m3
same,mass density,"293.22 K, 200.05 kPa, Fluid (supercritical or subcritical phases)",8.76202 ± 0.05 kg/m3 and 8.75976 ± 0.05 kg/m3
same,mass density,"293.22 K, 300.02 kPa, Fluid (supercritical or subcritical phases)",13.4608 ± 0.052 kg/m3
same,vapor or sublimation pressure,"293.22 K, Liquid",571.94 ± 1.5 kPa and 571.98 ± 1.5 kPa
same,mass density,"293.22 K, Liquid",1225.34 ± 0.38 kg/m3 and 1225.33 ± 0.38 kg/m3
same,mass density,"303.25 K, 100.02 kPa, Fluid (supercritical or subcritical phases)",4.1211 ± 0.048 kg/m3 and 4.12406 ± 0.048 kg/m3
same,vapor or sublimation pressure,"303.25 K, Liquid",771.67 ± 1.7 kPa
same,mass density,"303.25 K, Liquid",1187.23 ± 0.37 kg/m3
same,mass density,"303.26 K, 299.99 kPa, Fluid (supercritical or subcritical phases)",12.8979 ± 0.05 kg/m3
same,mass density,"303.26 K, 499.91 kPa, Fluid (supercritical or subcritical phases)",22.542 ± 0.056 kg/m3
same,mass density,"303.26 K, 711.4 kPa, Fluid (supercritical or subcritical phases)",34.0053 ± 0.059 kg/m3
same,vapor or sublimation pressure,"303.26 K, Liquid",771.76 ± 1.7 kPa
same,mass density,"303.26 K, Liquid",1187.22 ± 0.37 kg/m3
same,mass density,"313.17 K, 100.02 kPa, Fluid (supercritical or subcritical phases)",3.98495 ± 0.046 kg/m3 and 3.98345 ± 0.046 kg/m3
same,mass density,"313.17 K, 200.04 kPa, Fluid (supercritical or subcritical phases)",8.11408 ± 0.048 kg/m3
same,mass density,"313.17 K, 600.21 kPa, Fluid (supercritical or subcritical phases)",26.4214 ± 0.055 kg/m3
same,mass density,"313.17 K, 902.11 kPa, Fluid (supercritical or subcritical phases)",42.8957 ± 0.062 kg/m3
same,mass density,"313.18 K, 400.01 kPa, Fluid (supercritical or subcritical phases)",16.8674 ± 0.05 kg/m3
same,mass density,"313.18 K, 800.41 kPa, Fluid (supercritical or subcritical phases)",37.0004 ± 0.059 kg/m3
same,vapor or sublimation pressure,"313.18 K, Liquid",1018.1 ± 2.1 kPa
same,mass density,"313.18 K, Liquid",1146.44 ± 0.37 kg/m3
same,mass density,"323.19 K, 100.02 kPa, Fluid (supercritical or subcritical phases)",3.85767 ± 0.045 kg/m3 and 3.85694 ± 0.045 kg/m3
same,mass density,"323.19 K, 500 kPa, Fluid (supercritical or subcritical phases)",20.6111 ± 0.051 kg/m3
same,mass density,"323.19 K, 940.01 kPa, Fluid (supercritical or subcritical phases)",42.4962 ± 0.064 kg/m3
same,mass density,"323.19 K, 1271.1 kPa, Fluid (supercritical or subcritical phases)",62.9174 ± 0.068 kg/m3
same,vapor or sublimation pressure,"323.19 K, Liquid",1319.8 ± 2.5 kPa
same,mass density,"323.19 K, Liquid",1102.35 ± 0.36 kg/m3
same,mass density,"323.2 K, 300 kPa, Fluid (supercritical or subcritical phases)",11.9392 ± 0.047 kg/m3
same,mass density,"323.2 K, 802.37 kPa, Fluid (supercritical or subcritical phases)",35.149 ± 0.054 kg/m3
same,vapor or sublimation pressure,"323.2 K, Liquid",1319.9 ± 2.5 kPa
same,mass density,"323.2 K, Liquid",1102.34 ± 0.36 kg/m3
same,mass density,"333.16 K, 101.53 kPa, Fluid (supercritical or subcritical phases)",3.7964 ± 0.044 kg/m3
same,mass density,"333.16 K, 303.79 kPa, Fluid (supercritical or subcritical phases)",11.6786 ± 0.045 kg/m3
same,mass density,"333.16 K, 1500 kPa, Fluid (supercritical or subcritical phases)",73.4336 ± 0.072 kg/m3
same,vapor or sublimation pressure,"333.16 K, Liquid",1683 ± 3.1 kPa
same,mass density,"333.16 K, Liquid",1052.61 ± 0.37 kg/m3
same,mass density,"333.17 K, 101.53 kPa, Fluid (supercritical or subcritical phases)",3.79264 ± 0.044 kg/m3
same,mass density,"333.17 K, 502.7 kPa, Fluid (supercritical or subcritical phases)",19.9182 ± 0.049 kg/m3
same,mass density,"333.17 K, 801.13 kPa, Fluid (supercritical or subcritical phases)",33.4094 ± 0.052 kg/m3
same,mass density,"333.17 K, 1009.4 kPa, Fluid (supercritical or subcritical phases)",43.8443 ± 0.059 kg/m3
same,mass density,"333.17 K, 1300.4 kPa, Fluid (supercritical or subcritical phases)",60.3214 ± 0.066 kg/m3
same,vapor or sublimation pressure,"333.17 K, Liquid",1683.2 ± 3.1 kPa
same,mass density,"333.17 K, Liquid",1052.6 ± 0.37 kg/m3
same,mass density,"343.03 K, 136.28 kPa, Fluid (supercritical or subcritical phases)",4.96602 ± 0.043 kg/m3
same,mass density,"343.03 K, 1500 kPa, Fluid (supercritical or subcritical phases)",68.2379 ± 0.068 kg/m3
same,mass density,"343.03 K, 1704.5 kPa, Fluid (supercritical or subcritical phases)",81.5238 ± 0.075 kg/m3
same,vapor or sublimation pressure,"343.03 K, Liquid",2110.6 ± 3.8 kPa
same,mass density,"343.03 K, Liquid",997.103 ± 0.38 kg/m3
same,mass density,"343.04 K, 136.71 kPa, Fluid (supercritical or subcritical phases)",4.97127 ± 0.043 kg/m3
same,mass density,"343.04 K, 303.78 kPa, Fluid (supercritical or subcritical phases)",11.2865 ± 0.044 kg/m3
same,mass density,"343.04 K, 520.7 kPa, Fluid (supercritical or subcritical phases)",19.9261 ± 0.047 kg/m3
same,mass density,"343.04 K, 849.11 kPa, Fluid (supercritical or subcritical phases)",34.1538 ± 0.05 kg/m3
same,mass density,"343.04 K, 1093.8 kPa, Fluid (supercritical or subcritical phases)",45.8644 ± 0.055 kg/m3
same,mass density,"343.04 K, 1300.4 kPa, Fluid (supercritical or subcritical phases)",56.7069 ± 0.061 kg/m3
same,mass density,"343.04 K, 1900.2 kPa, Fluid (supercritical or subcritical phases)",96.118 ± 0.087 kg/m3
same,vapor or sublimation pressure,"343.04 K, Liquid",2110.9 ± 3.8 kPa
same,mass density,"343.04 K, Liquid",997.091 ± 0.38 kg/m3
same,mass density,"353.16 K, 136.72 kPa, Fluid (supercritical or subcritical phases)",4.81465 ± 0.043 kg/m3
same,mass density,"353.16 K, 500.97 kPa, Fluid (supercritical or subcritical phases)",18.447 ± 0.045 kg/m3
same,mass density,"353.16 K, 2000.3 kPa, Fluid (supercritical or subcritical phases)",94.8889 ± 0.078 kg/m3
same,mass density,"353.16 K, 2200.5 kPa, Fluid (supercritical or subcritical phases)",110.087 ± 0.093 kg/m3
same,vapor or sublimation pressure,"353.16 K, Liquid",2633.6 ± 4.7 kPa and 2633.7 ± 4.7 kPa
same,mass density,"353.16 K, Liquid",928.313 ± 0.41 kg/m3 and 928.306 ± 0.41 kg/m3
same,mass density,"353.17 K, 1000.4 kPa, Fluid (supercritical or subcritical phases)",39.3925 ± 0.052 kg/m3
same,mass density,"353.17 K, 1508.8 kPa, Fluid (supercritical or subcritical phases)",64.532 ± 0.061 kg/m3
same,mass density,"353.17 K, 2408.1 kPa, Fluid (supercritical or subcritical phases)",128.821 ± 0.11 kg/m3
same,mass density,"363.17 K, 153.67 kPa, Fluid (supercritical or subcritical phases)",5.26494 ± 0.041 kg/m3
same,mass density,"363.17 K, 500.5 kPa, Fluid (supercritical or subcritical phases)",17.8052 ± 0.044 kg/m3
same,mass density,"363.17 K, 1001.1 kPa, Fluid (supercritical or subcritical phases)",37.7848 ± 0.048 kg/m3
same,mass density,"363.17 K, 3101.3 kPa, Fluid (supercritical or subcritical phases)",188.758 ± 0.19 kg/m3
same,vapor or sublimation pressure,"363.17 K, Liquid",3245.3 ± 5.6 kPa
same,mass density,"363.17 K, Liquid",837.765 ± 0.43 kg/m3
same,mass density,"363.18 K, 1500.8 kPa, Fluid (supercritical or subcritical phases)",60.7126 ± 0.055 kg/m3
same,mass density,"363.18 K, 2003.2 kPa, Fluid (supercritical or subcritical phases)",88.1709 ± 0.069 kg/m3
same,mass density,"363.18 K, 2500.4 kPa, Fluid (supercritical or subcritical phases)",122.731 ± 0.095 kg/m3
same,mass density,"363.18 K, 2800.4 kPa, Fluid (supercritical or subcritical phases)",150.158 ± 0.13 kg/m3
same,mass density,"363.18 K, 3002.1 kPa, Fluid (supercritical or subcritical phases)",174.085 ± 0.16 kg/m3
same,vapor or sublimation pressure,"363.18 K, Liquid",3245.5 ± 5.6 kPa
same,mass density,"363.18 K, Liquid",837.734 ± 0.43 kg/m3
